# Results taken from the supplement of paper PMC10307832.
# Compound: O=C(/C=C/c1ccccc1)NC(NC(=S)Nc1cccc2cccnc12)C(Cl)(Cl)Cl [Salubrinal] + C[C@@H](Oc1cc(-c2cnn(C3CCNCC3)c2)cnc1N)c1c(Cl)ccc(F)c1Cl [Crizotinib] (partner 1 µM)
# Assay: relative viability (nuclei count vs DMSO), 5 days (fraction); higher = more cells survive
# Conditions: first compound 0.08 µM
# Method in brief: (§1)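 A single step with final 0.05% Triton X-100, 1% formaldehyde and 1 ug/ml Hoechst fixed the cells and stained nuclei 5 days after treatment. Lung cancer cell lines in 1536-well plates had been treated by pin tool the day after seeding with one drug alone or a fixed anchor-drug dose plus five library-drug doses (not always all listed) in √10 steps, and nuclei were counted on 4× images. Relative viability is the ratio of nuclei in treated wells to nuclei in vehicle wells, taken as the median of duplicate plates.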
row,Cell Line,relative viability
1,HOP-62,1.04
2,HCC-44,0.833
3,LU99A,0.588
4,BEN,1.02
5,HARA,1.21
6,HCC-78,0.363
7,NCI-H322M,0.898
8,LCLC-97TM1,0.382
9,NCI-H2009,1.02
10,A-427,0.896
11,NCI-H441,0.689
12,NCI-H661,0.934
13,NCI-H1734,0.694
14,NCI-H460,1.18
15,NCI-H2347,0.709
16,SK-LU-1,1.23
17,201T,0.997

row,Cell Line,relative viability
1,NCI-H1915,0.994
2,HCC-827,0.901
3,LXF-289,0.869
4,NCI-H23,0.559
5,NCI-H647,1.44
6,NCI-H1651,0.923
7,EPLC-272H,0.976
8,NCI-H1792,1.14
9,NCI-H1355,1.18
10,NCI-H3122,0.285
11,NCI-H1437,0.975
12,NCI-H1755,0.991
13,NCI-H2023,0.674
14,HCC-15,0.984
15,PC-14,0.927
16,EKVX,1.16

# Same assay, conditions: first compound 0.253 µM
row,Cell Line,relative viability
1,HOP-62,0.965
2,HCC-44,0.801
3,LU99A,0.635
4,BEN,0.734
5,HARA,0.911
6,HCC-78,0.325
7,NCI-H322M,0.901
8,LCLC-97TM1,0.507
9,NCI-H2009,0.972
10,A-427,0.899
11,NCI-H441,0.665
12,NCI-H1734,0.774
13,NCI-H460,0.891
14,NCI-H2347,0.709
15,SK-LU-1,0.717
16,201T,1

row,Cell Line,relative viability
1,NCI-H1915,0.643
2,HCC-827,0.921
3,LXF-289,0.73
4,NCI-H23,0.391
5,NCI-H647,0.891
6,NCI-H1651,0.864
7,EPLC-272H,0.839
8,NCI-H1355,1.12
9,NCI-H3122,0.277
10,NCI-H1437,0.77
11,NCI-H1755,0.738
12,NCI-H2023,0.672
13,HCC-15,0.651
14,PC-14,0.853
15,EKVX,0.811

# Same assay, conditions: first compound 0.8 µM
row,Cell Line,relative viability
1,HOP-62,1.21
2,HCC-44,0.863
3,LU99A,0.657
4,BEN,0.996
5,HARA,1.03
6,HCC-78,0.398
7,NCI-H322M,1.08
8,LCLC-97TM1,0.446
9,NCI-H2009,0.955
10,A-427,1.05
11,NCI-H441,0.73
12,NCI-H661,1.1
13,NCI-H1734,0.842
14,NCI-H460,0.843
15,NCI-H2347,0.772
16,SK-LU-1,1.1
17,201T,1.05

row,Cell Line,relative viability
1,NCI-H1915,1.03
2,HCC-827,0.992
3,LXF-289,0.818
4,NCI-H23,0.621
5,NCI-H647,1
6,NCI-H1651,0.925
7,EPLC-272H,0.887
8,NCI-H1792,1.33
9,NCI-H1355,1.12
10,NCI-H3122,0.255
11,NCI-H1437,1.02
12,NCI-H1755,1
13,NCI-H2023,0.68
14,HCC-15,0.946
15,PC-14,0.935
16,EKVX,0.971

# Same assay, conditions: first compound 2.53 µM
row,Cell Line,relative viability
1,HOP-62,0.914
2,HCC-44,0.748
3,LU99A,0.528
4,BEN,0.858
5,HARA,1.14
6,HCC-78,0.308
7,NCI-H322M,0.872
8,NCI-H2009,0.983
9,A-427,0.85
10,NCI-H441,0.766
11,NCI-H661,1.01
12,NCI-H1734,0.674
13,NCI-H460,0.909
14,NCI-H2347,0.76
15,SK-LU-1,0.938
16,201T,1.01

row,Cell Line,relative viability
1,NCI-H1915,0.875
2,HCC-827,0.475
3,LXF-289,0.757
4,NCI-H23,0.461
5,NCI-H647,1.12
6,NCI-H1651,0.858
7,EPLC-272H,1.03
8,NCI-H1792,0.929
9,NCI-H1355,1.12
10,NCI-H3122,0.295
11,NCI-H1437,0.909
12,NCI-H1755,0.874
13,NCI-H2023,0.635
14,HCC-15,0.883
15,PC-14,0.885
16,EKVX,0.974

# Same assay, conditions: first compound 8 µM
row,Cell Line,relative viability
1,HOP-62,0.26
2,HCC-44,0.759
3,LU99A,0.5
4,BEN,0.852
5,HARA,0.868
6,HCC-78,0.302
7,NCI-H322M,0.944
8,LCLC-97TM1,0.364
9,NCI-H2009,0.976
10,A-427,0.895
11,NCI-H441,0.652
12,NCI-H661,1.17
13,NCI-H1734,0.772
14,NCI-H460,0.541
15,NCI-H2347,0.719
16,SK-LU-1,0.841
17,201T,1.02

row,Cell Line,relative viability
1,NCI-H1915,0.836
2,HCC-827,0.844
3,LXF-289,0.8
4,NCI-H23,0.354
5,NCI-H647,0.905
6,NCI-H1651,0.9
7,EPLC-272H,0.949
8,NCI-H1792,0.859
9,NCI-H1355,1.03
10,NCI-H3122,0.276
11,NCI-H1437,0.758
12,NCI-H1755,0.917
13,NCI-H2023,0.614
14,HCC-15,0.785
15,PC-14,0.914
16,EKVX,1.07

# Compound: Cc1ccc2nc(NCCN)c3ncc(C)n3c2c1 + CC(=O)Nc1cccc(-n2c(=O)n(C3CC3)c(=O)c3c(Nc4ccc(I)cc4F)n(C)c(=O)c(C)c32)c1 [Trametinib] (partner 0.02 µM)
# Assay: as above
# Conditions: first compound 0.04 µM
# Method in brief: as §1
row,Cell Line,relative viability
1,HOP-62,0.41
